Laboratory results reported in patent US20220273683A1, “BORON-CONTAINING SMALL MOLECULES” (Bill & Melinda Gates Foundation, priority 2016, published 2022).
Converted amounts (≈) assume the structure as drawn.

Legend:
[1] = system: Staphylococcus aureus, MRSA (ATCC 33591); assay: Antibacterial MIC assay (microbroth dilution, CLSI); type: cell-based; settings: 35° C., 16-20 hours; for MIC: Staphylococcus aureus
From the text: (§1) All MIC testing of bacteria followed the Clinical and Laboratory Standards Institute (CLSI) guidelines for antimicrobial testing of aerobic bacteria (Methods for Dilution Antimicrobial Susceptibility Tests for Bacteria that Grow Aerobically; Approved Standard—Tenth Edition, M07-A10; Performance Standards for Antimicrobial Susceptibility Testing; Twenty-fifth Informational Supplement, M100-S25).
(§2) Briefly, the microbroth dilution MIC method was used to quantitatively measure the in vitro antibacterial activity of a compound against a given bacterial isolate. The following bacterial strains were evaluated: Staphylococcus aureus, MRSA (ATCC 33591) and Streptococcus pneumoniae (ATCC 49619). Bacteria were grown in cation-adjusted Mueller-Hinton broth, with additions as required per species growth requirements (e.g. 3% lysed horse blood for fastidious organisms such as S. pneumoniae). A direct colony suspension in saline was prepared from colonies on an overnight agar plate to achieve a turbidity equivalent to 0.5 McFarland standard, which was subsequently diluted into the assay plate to achieve 5×10^5 CFU/mL. Assays plates were prepared by 2-fold dilution of compound across the plate and included a positive growth control.

[2] = system: Streptococcus pneumoniae (ATCC 49619); assay: as above; type: cell-based; settings: 35° C., 16-20 hours; for MIC Streptococcus pneumoniae (ATCC 49619): 3% lysed horse blood; for MIC: Streptococcus pneumoniae, ATCC49619, 3% lysed horse blood
From the text: as §1, §2

MIC Staphylococcus aureus, MRSA (ATCC 33591) [1]	MIC Streptococcus pneumoniae (ATCC 49619) [2]	Compound	MIC [1]	MIC [2]
B (0.5-2 is B)	C (4-32 is C)	C[C@@H]1CC[C@@]23CCC(=O)[C@H]2[C@]1(C)[C@H](OC(=O)COc1ccc2c(c1F)B(O)OC2)C[C@@](C)(CN(C)C)[C@@H](O)[C@@H]3C [Compound 33, (3aR,4R,5R,7S,8S,9R,9aS,12R)-7-((dimethylamino)methyl)-8-hydroxy-4,7,9,12-tetramethyl-3-oxodecahydro-4,9a-propanocyclopenta[8]annulen-5-yl2-((7-fluoro-1-hydroxy-1,3-dihydrobenzo[c][1,2]oxaborol-6-yl)oxy)acetate]		
A (MIC of ≤0.25 is A)	C (4-32 is C)	C[C@@H]1CC[C@@]23CCC(=O)[C@H]2[C@]1(C)[C@H](OC(=O)COc1ccc2c(c1F)B(O)OC2)C[C@@](C)(C=NO)[C@@H](O)[C@@H]3C [Compound 43, (3aR,4R,5R,7S,8S,9R,9aS,12R)-8-hydroxy-7-((hydroxyimino)methyl)-4,7,9,12-tetramethyl-3-oxodecahydro-4,9a-propanocyclopenta[8]annulen-5-yl2-((7-fluoro-1-hydroxy-1,3-dihydrobenzo[c][1,2]oxaborol-6-yl)oxy)acetate]		
A (MIC of ≤0.25 is A)	C (4-32 is C)	CON=C[C@]1(C)C[C@@H](OC(=O)COc2ccc3c(c2F)B(O)OC3)[C@]2(C)[C@H](C)CC[C@]3(CCC(=O)[C@H]32)[C@@H](C)[C@@H]1O [Compound 44, (3aR,4R,5R,7S,8S,9R,9aS,12R)-8-hydroxy-7-((methoxyimino)methyl)-4,7,9,12-tetramethyl-3-oxodecahydro-4,9a-propanocyclopenta[8]annulen-5-yl2-((7-fluoro-1-hydroxy-1,3-dihydrobenzo[c][1,2]oxaborol-6-yl)oxy)acetate]		
B (0.5-2 is B)	B (0.5-2 is B)	CNC(=O)/C=C/[C@]1(C)C[C@@H](OC(=O)COc2ccc3c(c2F)B(O)OC3)[C@]2(C)[C@H](C)CC[C@]3(CCC(=O)[C@H]32)[C@@H](C)[C@@H]1O [Compound 15, (3aR,4R,5R,7S,8S,9R,9aS,12R)-8-hydroxy-4,7,9,12-tetramethyl-7-((E)-3-(methylamino)-3-oxoprop-1-en-1-yl)-3-oxodecahydro-4,9a-propanocyclopenta[8]annulen-5-yl2-((7-fluoro-1-hydroxy-1,3-dihydrobenzo[c][1,2]oxaborol-6-yl)oxy)acetate]		
		C[C@@H]1CC[C@@]23CCC(=O)[C@H]2[C@]1(C)[C@H](OC(=O)COc1ccc2c(c1F)B(O)OC2)C[C@@](C)(/C=C/C(=O)NNC(=O)OC(C)(C)C)[C@@H](O)[C@@H]3C [Compound 17, tert-butyl 2-((E)-3-((3aR,4R,5R,7S,8S,9R,9aS,12R)-5-(2-((7-fluoro-1-hydroxy-1,3-dihydrobenzo[c][1,2]oxaborol-6-yl)oxy)acetoxy)-8-hydroxy-4,7,9,12-tetramethyl-3-oxodecahydro-4,9a-propanocyclopenta[8]annulen-7-yl)acryloyl)hydrazine-1-carboxylate]	4 to 32 mg/L (≈ 5.83 to 46.6 µM)	0.5 to 2 mg/L (≈ 0.728 to 2.91 µM)
A (MIC of ≤0.25 is A)	B (0.5-2 is B)	C#CC[C@]1(C)C[C@@H](OC(=O)COc2ccc3c(c2F)B(O)OC3)[C@]2(C)[C@H](C)CC[C@]3(CCC(=O)[C@H]32)[C@@H](C)[C@@H]1O [Compound 22, (3aR,4R,5R,7R,8S,9R,9aS,12R)-8-hydroxy-4,7,9,12-tetramethyl-3-oxo-7-(prop-2-yn-1-yl)decahydro-4,9a-propanocyclopenta[8]annulen-5-yl2-((7-fluoro-1-hydroxy-1,3-dihydrobenzo[c][1,2]oxaborol-6-yl)oxy)acetate]		
B (0.5-2 is B)	B (0.5-2 is B)	C[C@@H]1CC[C@@]23CCC(=O)[C@H]2[C@]1(C)[C@H](OC(=O)COc1ccc2c(c1F)B(O)OC2)C[C@@](C)(/C=C/C(N)=O)[C@@H](O)[C@@H]3C [Compound 14, (3aR,4R,5R,7S,8S,9R,9aS,12R)-7-((E)-3-amino-3-oxoprop-1-en-1-yl)-8-hydroxy-4,7,9,12-tetramethyl-3-oxodecahydro-4,9a-propanocyclopenta[8]annulen-5-yl2-((7-fluoro-1-hydroxy-1,3-dihydrobenzo[c][1,2]oxaborol-6-yl)oxy)acetate]		
C (4-32 is C)	B (0.5-2 is B)	C[C@@H]1CC[C@@]23CCC(=O)[C@H]2[C@]1(C)[C@H](OC(=O)COc1ccc2c(c1F)B(O)OC2)C[C@@](C)(CCC(=O)N1CCC(O)C1)[C@@H](O)[C@@H]3C (stereo partly drawn) [Compound 7, (3aR,4R,5R,7R,8S,9R,9aS,12R)-8-hydroxy-7-(3-(3-hydroxypyrrolidin-1-yl)-3-oxopropyl)-4,7,9,12-tetramethyl-3-oxodecahydro-4,9a-propanocyclopenta[8]annulen-5-yl2-((7-fluoro-1-hydroxy-1,3-dihydrobenzo[c][1,2]oxaborol-6-yl)oxy)acetate]		
B (0.5-2 is B)	C (4-32 is C)	CC(C)ON=C[C@]1(C)C[C@@H](OC(=O)COc2ccc3c(c2F)B(O)OC3)[C@]2(C)[C@H](C)CC[C@]3(CCC(=O)[C@H]32)[C@@H](C)[C@@H]1O [Compound 46, (3aR,4R,5R,7S,8S,9R,9aS,12R)-8-hydroxy-7-((isopropoxyimino)methyl)-4,7,9,12-tetramethyl-3-oxodecahydro-4,9a-propanocyclopenta[8]annulen-5-yl2-((7-fluoro-1-hydroxy-1,3-dihydrobenzo[c][1,2]oxaborol-6-yl)oxy)acetate]		
C (4-32 is C)	C (4-32 is C)	CCNC[C@]1(C)C[C@@H](OC(=O)COc2ccc3c(c2F)B(O)OC3)[C@]2(C)[C@H](C)CC[C@]3(CCC(=O)[C@H]32)[C@@H](C)[C@@H]1O [Compound 34, (3aR,4R,5R,7S,8S,9R,9aS,12R)-7-((ethylamino)methyl)-8-hydroxy-4,7,9,12-tetramethyl-3-oxodecahydro-4,9a-propanocyclopenta[8]annulen-5-yl2-((7-fluoro-1-hydroxy-1,3-dihydrobenzo[c][1,2]oxaborol-6-yl)oxy)acetate]		
		C[C@@H]1CC[C@@]23CCC(=O)[C@H]2[C@]1(C)[C@H](OC(=O)COc1ccc2c(c1F)B(O)OC2)C[C@@](C)(CCN1CCOCC1)[C@@H](O)[C@@H]3C [Compound 41, (3aR,4R,5R,7R,8S,9R,9aS,12R)-8-hydroxy-4,7,9,12-tetramethyl-7-(2-morpholinoethyl)-3-oxodecahydro-4,9a-propanocyclopenta[8]annulen-5-yl 2-((7-fluoro-1-hydroxy-1,3-dihydrobenzo[c][1,2]oxaborol-6-yl)oxy)acetate]	4 to 32 mg/L (≈ 6.5 to 52 µM)	4 to 32 mg/L (≈ 6.5 to 52 µM)
B (0.5-2 is B)	C (4-32 is C)	CCCCNC[C@]1(C)C[C@@H](OC(=O)COc2ccc3c(c2F)B(O)OC3)[C@]2(C)[C@H](C)CC[C@]3(CCC(=O)[C@H]32)[C@@H](C)[C@@H]1O [Compound 36, (3aR,4R,5R,7S,8S,9R,9aS,12R)-7-((butylamino)methyl)-8-hydroxy-4,7,9,12-tetramethyl-3-oxodecahydro-4,9a-propanocyclopenta[8]annulen-5-yl2-((7-fluoro-1-hydroxy-1,3-dihydrobenzo[c][1,2]oxaborol-6-yl)oxy)acetate]		
C (4-32 is C)	B (0.5-2 is B)	C[C@@H]1CC[C@@]23CCC(=O)[C@H]2[C@]1(C)[C@H](OC(=O)COc1ccc2c(c1F)B(O)OC2)C[C@@](C)(/C=C/C(=O)NN)[C@@H](O)[C@@H]3C [Compound 18, (3aR,4R,5R,7S,8S,9R,9aS,12R)-7-((E)-3-hydrazinyl-3-oxoprop-1-en-1-yl)-8-hydroxy-4,7,9,12-tetramethyl-3-oxodecahydro-4,9a-propanocyclopenta[8]annulen-5-yl2-((7-fluoro-1-hydroxy-1,3-dihydrobenzo[c][1,2]oxaborol-6-yl)oxy)acetate]		
A (MIC of ≤0.25 is A)	B (0.5-2 is B)	C[C@@H]1CC[C@@]23CCC(=O)[C@H]2[C@]1(C)[C@H](OC(=O)COc1ccc2c(c1F)B(O)OC2)C[C@@](C)([C@@H]1CO1)[C@@H](O)[C@@H]3C [Compound 27, (3aR,4R,5R,7R,8S,9R,9aS,12R)-8-hydroxy-4,7,9,12-tetramethyl-7-((R)-oxiran-2-yl)-3-oxodecahydro-4,9a-propanocyclopenta[8]annulen-5-yl2-((7-fluoro-1-hydroxy-1,3-dihydrobenzo[c][1,2]oxaborol-6-yl)oxy)acetate]		
C (4-32 is C)	B (0.5-2 is B)	C[C@@H]1CC[C@@]23CCC(=O)[C@H]2[C@]1(C)[C@H](OC(=O)COc1ccc2c(c1F)B(O)OC2)C[C@@](C)(CCC(=O)N1CC[C@H](O)C1)[C@@H](O)[C@@H]3C [Compound 8, (3aR,4R,5R,7R,8S,9R,9aS,12R)-8-hydroxy-7-(3-((S)-3-hydroxypyrrolidin-1-yl)-3-oxopropyl)-4,7,9,12-tetramethyl-3-oxodecahydro-4,9a-propanocyclopenta[8]annulen-5-yl2-((7-fluoro-1-hydroxy-1,3-dihydrobenzo[c][1,2]oxaborol-6-yl)oxy)acetate]		
